From US7914821B2, “Pharmaceutical composition for prevention and/or treatment of bone loss” (KO DA Pharmaceuticals Co., Ltd., priority 2008, dated 2011)

Key:
p38 = test: Phosphorylation of p38 (western blot); type: cell-based, rat; settings: 10 μM, 1, 3, 6, 12, 24 hrs; FIG. 10
Protocol: (§1) Rat primary osteoblast was isolated from the parietal bone of gestation day 18 embryos of Sprague-Dawley rats. After being slaughtered, the embryo rats were obtained from the uteruses of the rats, and calvarium was isolated from the embryo rats. Parietal bone was cut from the calvarium and digested by 0.1% collagenase for 20 minutes to release the bone cells from the bone tissue. The digestion step was repeated five times. The collected bone cells were cultured in α-MEM containing 1% penicillin-streptomycin and 10% FBS in a humidified atmosphere of 5 percent carbon dioxide. When cells were attached and confluence, they were sub-cultured, which was called “passage 2 (P2)”. The passage was for analogizing. 2 to 5 passage cells were used for the experiments.
Bone cells was cultured in 6-well plate and treated with 10 μM of imperatorin and bergapten for 1, 3, 6, 12, and 24 hrs, respectively. […] Following incubation with the secondary antibody, the membrane was washed three times with PBST, and detected by an […] chemiluminescence using an ECL blotting substrate according to the manufacturer's instructions. […]

p38 mutant cell (DN-p38) = test: ALP activity in p38 mutant cell; type: cell-based; settings: 10 μM; FIG. 11D
Protocol: (§2) Bone cells were cultured and treated with (1) 10 μM SB203580, (2) 10 μM PD98059, (3) 10 μM imperatori, (4) 10 μM bergapten, (5) 10 μM imperatorin+SB203580, (6) 10 μM bergapten+SB203580, (7) 10 μM imperatorin+PD98059 ? (8) 10 μM bergapten+PD98059 for 48 hrs. After treatment, the bone cells were lysed in 0.2% […] solution and centrifuged at 1500×g for 5 minutes. The supernatant was analyzed by an ALP kit such as described above to obtain the ALP activity. The ALP activity in the control group which was treated with 0.1% DMSO was defined as 100%. Referring to FIG. 11C, p38 inhibitor (SB203580) and ERK inhibitor (PD98059) suppressed the imperatorin and bergapten induced-ALP activity.
(§3) The same procedure carried out in Example 20 was repeated. The experiment group used alternative cells and treatment comprising: (1) DN-p38 cell, (2) DN-ERK cell, (3) DN-p38 cell+10 μM imperatorin, (4) DN-p38 cell+10 μM bergapten, (5) DN-ERK cell+10 μM imperatorin, (6) DN-ERK cell+10 μM bergapten, (7) normal bone cell+10 μM imperatorin, and (8) normal bone cell+10 μM bergapten. The ALP activity in the control group which was treated with 0.1% DMSO was defined as 100%. Referring to FIG. 11D, the ALP activity was not induced in p38 mutant cell (DN-p38) and ERK mutant cell (DN-ERK) by imperatorin and bergapten.

ERK mutant cell (DN-ERK) = test: ALP activity in ERK mutant cell; type: cell-based; settings: 10 μM; FIG. 11D
Protocol: as §2, §3

Male Sprague-Dawley rats = test: Animal experiment: local administration into the tibia; type: in vivo, rat; settings: for bone volume of tibia metaphysis / BMC / BMD / BV/TV (bone volume/tissue volume): 30 μM every day for a week through needle into tibia; for bone volume of tibia metaphysis: FIG. 12; for increase of bone mineral content / increase of bone mineral density: 'at least' figure, matches Table 3 vs control; for BMC / BMD / BV/TV (bone volume/tissue volume): tibia
Protocol: Male Sprague-Dawley rats (weighing 78 to 90 grams, at three weeks of age) were anesthetized with […] of trichloroacetaldehyde monohydrate. […] needle was sterilized and injected into the tibia of the rats. One day after the injection, the rats were administered with normal saline as the control, 30 μM imperatorin, and 30 μM bergapten every day for a week through the needle, respectively. Then, the rats were slaughtered after the last administration, and the tibias were immediately isolated after slaughtering and subject to BMD, BMC, and histochemical examination. Referring to FIG. 12, the bone volume of tibia metaphysis was increased by imperatorin and bergapten.

Bone cells = test: Cell viability (MTT); type: cell-based, rat; settings: 0.3, 1, 3, 10 μM, 48 hrs, FIG. 7A
Protocol: as §1
Bone cells were cultured in 96-well plate and treated with 0.3, 1, 3, and 10 μM of imperatorin and bergapten for 48 hrs, respectively. After treatment, the cells were reacted with MTT solution (0.5 mg/ml) at 37° C. for 30 minutes, lysed in 100 μl DMSO, and then absorbance was measured at […]. The cell viability in the control group which was treated with 0.1% DMSO was defined as 100%.

| Compound | phosphorylation of p38 (p38) | ALP activity in p38 mutant cell (DN-p38) (p38 mutant cell (DN-p38)) | ALP activity in ERK mutant cell (DN-ERK) (ERK mutant cell (DN-ERK)) | bone volume of tibia metaphysis (Male Sprague-Dawley rats) | increase of bone mineral content (Male Sprague-Dawley rats) | increase of bone mineral density (Male Sprague-Dawley rats) | BMC (Male Sprague-Dawley rats) | BMD (Male Sprague-Dawley rats) | BV/TV (bone volume/tissue volume) (Male Sprague-Dawley rats) | cell viability (Bone cells) |
| --- | --- | --- | --- | --- | --- | --- | --- | --- | --- | --- |
| CC(C)=CCOc1c2occc2cc2ccc(=O)oc12 [imperatorin] | induced | not induced | not induced | increased | ≥ 28.91% | at least 12.22% | 0.107 ± 0.003 g | 0.101 ± 0.002 g/mL | 17.6 ± 0.6 % | – |
| COc1c2ccoc2cc2oc(=O)ccc12 [bergapten] | induced | not induced | not induced | increased | ≥ 33.7% | at least 12.2% | 0.111 ± 0.003 g | 0.101 ± 0.002 g/mL | 18.1 ± 0.4 % | did not suppress |
